According to US12077503B2, “Substituted cyclic amides and their use as herbicides” (FMC CORPORATION, priority 2015, dated 2024):

Key:
Assay type in all cases: in vivo
[1] = system: giant foxtail (Setaria faberi); assay: Test G Pre-Emergence Protocol; settings: Setaria faberi, pre-emergence, 312 h, evaluated after 13 days; for pest or weed control at 15.625 g/ha: 15.625 g ai/ha; for pest or weed control at 15.625 g/ha / pest or weed control at 250 g/ha: read-out: Foxtail, Giant damage rating (100=total damage to plant; 0=no damage to plant); for pest or weed control at 62.5 g/ha: 62.5 g ai/ha, 100=total damage to plant, 0=no damage to plant, read-out: plant damage rating, Foxtail, Giant; for pest or weed control at 250 g/ha: 250 g ai/ha
Procedure, shortened: (§1)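 Glasshouse pre-emergence test: soil-sown seeds, sprayed after 1 d at 15.625, 62.5 or 250 g/ha. Conditions 24/16° C day/night, 14 h light, 65% humidity, watering twice daily. Rating 13 d post-spray (100 = total damage).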

[2] = system: velvetleaf (Abutilon theophrasti); assay: Test G Pre-Emergence Protocol; settings: Abutilon theophrasti, pre-emergence, 312 h, evaluated after 13 days; for pest or weed control at 15.625 g/ha: 15.625 g ai/ha; for pest or weed control at 15.625 g/ha / pest or weed control at 250 g/ha: read-out: Velvetleaf damage rating (100=total damage to plant; 0=no damage to plant); for pest or weed control at 62.5 g/ha: 62.5 g ai/ha, 100=total damage to plant, 0=no damage to plant, read-out: plant damage rating, Velvetleaf; for pest or weed control at 250 g/ha: 250 g ai/ha
Procedure, shortened: as §1

corn (Zea mays) [3] = assay: Test G Pre-Emergence Protocol; settings: Zea mays, pre-emergence, 312 h, evaluated after 13 days; for plant injury at 15.625 g/ha: 15.625 g ai/ha; for plant injury at 15.625 g/ha / plant injury at 250 g/ha: read-out: Corn damage rating (100=total damage to plant; 0=no damage to plant); for plant injury at 62.5 g/ha: 62.5 g ai/ha, 100=total damage to plant, 0=no damage to plant, read-out: plant damage rating, Corn; for plant injury at 250 g/ha: 250 g ai/ha
Procedure, shortened: as §1

[4] = system: redroot pigweed (Amaranthus retroflexus); assay: Test G Pre-Emergence Protocol; settings: Amaranthus retroflexus, pre-emergence, 312 h, evaluated after 13 days; for pest or weed control at 15.625 g/ha: 15.625 g ai/ha; for pest or weed control at 15.625 g/ha / pest or weed control at 250 g/ha: read-out: Pigweed, Redroot damage rating (100=total damage to plant; 0=no damage to plant); for pest or weed control at 62.5 g/ha: 62.5 g ai/ha, 100=total damage to plant, 0=no damage to plant, read-out: plant damage rating, Pigweed, Redroot; for pest or weed control at 250 g/ha: 250 g ai/ha
Procedure, shortened: as §1

[5] = system: ivy-leaved morning glory (Ipomoea hederacea); assay: Test G Pre-Emergence Protocol; settings: Ipomoea, pre-emergence, 312 h, evaluated after 13 days; for pest or weed control at 15.625 g/ha: 15.625 g ai/ha, read-out: Morning-glory, Ivy-leaved damage rating (100=total damage to plant; 0=no damage to plant); for pest or weed control at 62.5 g/ha: 62.5 g ai/ha, 100=total damage to plant, 0=no damage to plant, read-out: plant damage rating, Morningglory, Ivy-leaved; for pest or weed control at 250 g/ha: 250 g ai/ha, read-out: Morningglory, Ivy-leaved damage rating (100=total damage to plant; 0=no damage to plant)
Procedure, shortened: as §1

[6] = system: barnyardgrass (Echinochloa crus-galli); assay: Test G Pre-Emergence Protocol; settings: Echinochloa crus-galli, pre-emergence, 312 h, evaluated after 13 days; for pest or weed control at 15.625 g/ha: 15.625 g ai/ha, read-out: Barnyard grass damage rating (100=total damage to plant; 0=no damage to plant); for pest or weed control at 62.5 g/ha: 62.5 g ai/ha, 100=total damage to plant, 0=no damage to plant, read-out: plant damage rating, Barnyardgrass; for pest or weed control at 250 g/ha: 250 g ai/ha, read-out: Barnyardgrass damage rating (100=total damage to plant; 0=no damage to plant)
Procedure, shortened: as §1

[7] = system: giant foxtail (Setaria faberi); assay: Test G Post-Emergence Protocol; settings: Setaria faberi, post-emergence, 312 h; for pest or weed control at 15.625 g/ha: 15.625 g ai/ha, evaluated after 13 days (100=total damage to plant; 0=no damage to plant), read-out: Foxtail, Giant damage rating; for pest or weed control at 62.5 g/ha: 62.5 g ai/ha, read-out: Foxtail, Giant damage rating (100=total damage to plant; 0=no damage to plant); for pest or weed control at 62.5 g/ha / pest or weed control at 250 g/ha: evaluated after 13 days; for pest or weed control at 250 g/ha: 250 g ai/ha, read-out: damage to plant, Foxtail, Giant (100=total damage to plant; 0=no damage to plant)
Procedure, shortened: (§2)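 Damage was rated 13 days after treatment from 0 (none) to 100 (plant killed). Compound was applied as a spray at 15.625, 62.5 or 250 g/ha in 50:50 acetone/water containing 0.5% Tween 20, onto 8-day-old potted plants kept in a glasshouse (24/16 °C, 14 h light, 65% humidity).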

[8] = system: velvetleaf (Abutilon theophrasti); assay: Test G Post-Emergence Protocol; settings: Abutilon theophrasti, post-emergence, 312 h; for pest or weed control at 15.625 g/ha: 15.625 g ai/ha, evaluated after 13 days (100=total damage to plant; 0=no damage to plant), read-out: Velvetleaf damage rating; for pest or weed control at 62.5 g/ha: 62.5 g ai/ha, read-out: Velvetleaf damage rating (100=total damage to plant; 0=no damage to plant); for pest or weed control at 62.5 g/ha / pest or weed control at 250 g/ha: evaluated after 13 days; for pest or weed control at 250 g/ha: 250 g ai/ha, read-out: damage to plant, Velvetleaf (100=total damage to plant; 0=no damage to plant)
Procedure, shortened: as §2

corn (Zea mays) [9] = assay: Test G Post-Emergence Protocol; settings: Zea mays, post-emergence, 312 h; for plant injury at 15.625 g/ha: 15.625 g ai/ha, evaluated after 13 days (100=total damage to plant; 0=no damage to plant), read-out: Corn damage rating; for plant injury at 62.5 g/ha: 62.5 g ai/ha, read-out: Corn damage rating (100=total damage to plant; 0=no damage to plant); for plant injury at 62.5 g/ha / plant injury at 250 g/ha: evaluated after 13 days; for plant injury at 250 g/ha: 250 g ai/ha, read-out: damage to plant, Corn (100=total damage to plant; 0=no damage to plant)
Procedure, shortened: as §2

[10] = system: redroot pigweed (Amaranthus retroflexus); assay: Test G Post-Emergence Protocol; settings: Amaranthus retroflexus, post-emergence, 312 h; for pest or weed control at 15.625 g/ha: 15.625 g ai/ha, evaluated after 13 days (100=total damage to plant; 0=no damage to plant), read-out: Pigweed, Redroot damage rating; for pest or weed control at 62.5 g/ha: 62.5 g ai/ha, read-out: Pigweed, Redroot damage rating (100=total damage to plant; 0=no damage to plant); for pest or weed control at 62.5 g/ha / pest or weed control at 250 g/ha: evaluated after 13 days; for pest or weed control at 250 g/ha: 250 g ai/ha, read-out: damage to plant, Pigweed, Redroot (100=total damage to plant; 0=no damage to plant)
Procedure, shortened: as §2

[11] = system: ivy-leaved morning glory (Ipomoea hederacea); assay: Test G Post-Emergence Protocol; settings: Ipomoea, post-emergence, 312 h; for pest or weed control at 15.625 g/ha: 15.625 g ai/ha, evaluated after 13 days (100=total damage to plant; 0=no damage to plant), read-out: Morningglory, Ivy-leaved damage rating; for pest or weed control at 62.5 g/ha: 62.5 g ai/ha, read-out: Morningglory, Ivy-leaved damage rating (100=total damage to plant; 0=no damage to plant); for pest or weed control at 62.5 g/ha / pest or weed control at 250 g/ha: evaluated after 13 days; for pest or weed control at 250 g/ha: 250 g ai/ha, read-out: damage to plant, Morningglory, Ivy-leaved (100=total damage to plant; 0=no damage to plant)
Procedure, shortened: as §2

[12] = system: barnyardgrass (Echinochloa crus-galli); assay: Test G Post-Emergence Protocol; settings: Echinochloa crus-galli, post-emergence, 312 h; for pest or weed control at 15.625 g/ha: 15.625 g ai/ha, evaluated after 13 days (100=total damage to plant; 0=no damage to plant), read-out: Barnyardgrass damage rating; for pest or weed control at 62.5 g/ha: 62.5 g ai/ha, read-out: Barnyardgrass damage rating (100=total damage to plant; 0=no damage to plant); for pest or weed control at 62.5 g/ha / pest or weed control at 250 g/ha: evaluated after 13 days; for pest or weed control at 250 g/ha: 250 g ai/ha, read-out: damage to plant, Barnyardgrass (100=total damage to plant; 0=no damage to plant)
Procedure, shortened: as §2

| Compound | pest or weed control at 15.625 g/ha [1] | pest or weed control at 62.5 g/ha [1] | pest or weed control at 250 g/ha [1] | pest or weed control at 15.625 g/ha [2] | pest or weed control at 62.5 g/ha [2] | pest or weed control at 250 g/ha [2] | plant injury at 15.625 g/ha (corn (Zea mays) [3]) | plant injury at 62.5 g/ha (corn (Zea mays) [3]) | plant injury at 250 g/ha (corn (Zea mays) [3]) | pest or weed control at 15.625 g/ha [4] | pest or weed control at 62.5 g/ha [4] | pest or weed control at 250 g/ha [4] | pest or weed control at 15.625 g/ha [5] | pest or weed control at 62.5 g/ha [5] | pest or weed control at 250 g/ha [5] | pest or weed control at 15.625 g/ha [6] | pest or weed control at 62.5 g/ha [6] | pest or weed control at 250 g/ha [6] | pest or weed control at 15.625 g/ha [7] | pest or weed control at 62.5 g/ha [7] | other results |
| --- | --- | --- | --- | --- | --- | --- | --- | --- | --- | --- | --- | --- | --- | --- | --- | --- | --- | --- | --- | --- | --- |
| Cc1c(Br)cccc1NC(=O)[C@@H]1C(=O)N(C)C[C@H]1c1ccc(C(F)(F)F)cc1 (racemic) [Compound 1619] | 0% | 0% | 70% | 0% | 0% | 10% | 0% | 0% | 0% | 0% | 0% | 20% | 0% | 0% | 10% | 0% | 0% | 10% | 0% | 60% | pest or weed control at 250 g/ha [7]: 70%; pest or weed control at 15.625 g/ha [8]: 0%; pest or weed control at 62.5 g/ha [8]: 0%; pest or weed control at 250 g/ha [8]: 0%; plant injury at 15.625 g/ha (corn (Zea mays) [9]): 0%; plant injury at 62.5 g/ha (corn (Zea mays) [9]): 0%; plant injury at 250 g/ha (corn (Zea mays) [9]): 10%; pest or weed control at 15.625 g/ha [10]: 0%; pest or weed control at 62.5 g/ha [10]: 20%; pest or weed control at 250 g/ha [10]: 50%; pest or weed control at 15.625 g/ha [11]: 0%; pest or weed control at 62.5 g/ha [11]: 10%; pest or weed control at 250 g/ha [11]: 30%; pest or weed control at 15.625 g/ha [12]: 0%; pest or weed control at 62.5 g/ha [12]: 10%; pest or weed control at 250 g/ha [12]: 70% |
| CN1C[C@@H](c2ccc(C(F)(F)F)cc2)[C@H](C(=O)Nc2ccc(C#N)cc2Cl)C1=O (racemic) [Compound 1620] | 0% | 0% | 0% | 0% | 0% | 0% | 0% | 0% | 0% | 0% | 0% | 0% | 0% | 0% | 0% | 0% | 0% | 0% | 0% | 0% | pest or weed control at 250 g/ha [7]: 0%; pest or weed control at 15.625 g/ha [8]: 0%; pest or weed control at 62.5 g/ha [8]: 0%; pest or weed control at 250 g/ha [8]: 0%; plant injury at 15.625 g/ha (corn (Zea mays) [9]): 0%; plant injury at 62.5 g/ha (corn (Zea mays) [9]): 0%; plant injury at 250 g/ha (corn (Zea mays) [9]): 0%; pest or weed control at 15.625 g/ha [10]: 0%; pest or weed control at 62.5 g/ha [10]: 0%; pest or weed control at 250 g/ha [10]: 0%; pest or weed control at 15.625 g/ha [11]: 0%; pest or weed control at 62.5 g/ha [11]: 0%; pest or weed control at 250 g/ha [11]: 0%; pest or weed control at 15.625 g/ha [12]: 0%; pest or weed control at 62.5 g/ha [12]: 0%; pest or weed control at 250 g/ha [12]: 0% |
